Laboratory results from patent US11466032B2, “Cytotoxic agents” (FEMTOGENIX LIMITED, priority 2017, dated 2022).
pIC50: −log10 of the molar value.

Columns and labels:
[1] = tested on: LIM 1215; assay: MTT cytotoxicity assay, 72 hour incubation; assay type: cell-based
Description: (§1) The cytotoxicity of compounds 26, 34, 50,58 and 68 were evaluated in a variety of cell lines using the standard MTT assay for a 72 hour incubation period (Table 1).
(§2) Tumor cell lines were maintained in RPMI1640 medium supplemented with 10% heat-inactivated fetal bovine serum, 2 mM L-glutamine and 1 mM sodium pyruvate. 1800 cells per well were seeded in a volume of 180 μl in a 96-well flat bottom polystyrene plate. The cells were allowed to adhere overnight at 37° C. in a CO2 incubator. Ligands were initially formulated in DMSO, and stocks stored at −80° C. They were then further formulated at lox concentration in RPMI1640 medium. 20 ul of diluted samples were added into each treatment well. On each plate, blank wells with no cells, and untreated wells containing cells, were included. Plates were then cultured at 37° C. in a CO2 incubator for 72 hrs. Cytotoxicity was evaluated using a tetrazolium salt-based assay, the MT assay. After 72 hours, the supernatant was removed from each well and 200 μl of a sterile filtered 500 μg/ml MT solution in water added to each well. The plates were then incubated at 37° C. in a CO2 incubator for 4 hrs. The supernatant was then removed and the formazan crystals formed solubilized by adding 150 μl of DMSO to each well. The plate was then read on a plate reader at 540 nm, and percentage cell survival calculated as follows: ((mean absorbance treated wells at concentration x—mean absorbance blank wells)÷(mean absorbance untreated wells at concentration x—mean absorbance blank wells))×100. Data were plotted as concentration in nM vs. % cell survival in Microsoft Excel, and IC50 values (concentration where cell survival is reduced by a half) were determined from the graph.

[2] = tested on: MCF-7; assay: MTT cytotoxicity assay, 72 hour incubation; assay type: cell-based; conditions: Homo sapiens, MCF7, 3 runs
Description: as §1, §2

[3] = tested on: SK-BR-3; assay: MTT cytotoxicity assay, 72 hour incubation; assay type: cell-based; conditions: Homo sapiens, 3 runs
Description: as §1, §2

[4] = tested on: SW 620; assay: MTT cytotoxicity assay, 72 hour incubation; assay type: cell-based
Description: as §1, §2

[5] = tested on: SW48; assay: MTT cytotoxicity assay, 72 hour incubation; assay type: cell-based
Description: as §1, §2

[6] = tested on: ZR 75-1; assay: MTT cytotoxicity assay, 72 hour incubation; assay type: cell-based; conditions: Homo sapiens, 3 runs
Description: as §1, §2

[7] = tested on: HexA and MS1 DNA fragments; assay: DNA footprinting; assay type: binding; conditions: X is any base, Y is G or C, W is A or T; overnight incubation
Description: The sequence selectivity of 26 and 34 was investigated using a modification of the previously established DNA footprinting assay^25. Following an overnight incubation of the ligand-DNA complexes, the mixture was mixed with strand separation buffer containing 10 mM EDTA, 10 mM NaOH, 0.1% bromophenol blue, 80% formamide and incubated at 100° C. for 3 min. The mixture was then immediately cooled on ice and run on an 8% denaturing gel.
Footprinting reactions were performed as previously described^[5] using the DNA fragments HexA and HexB, which together contain all 64 symmetrical hexanucleotide sequences^[6], and MS1 that contains all possible […] tetranucleotide sequences^[7]. The DNA fragments were obtained by cutting the parent plasmids with HindIII and SacI (for HexA and MS1) or EcoRI and PstI (for HexB), and were labelled at the 3′-end of the HindIII or EcoRI sites with [α-^32P]dATP using reverse transcriptase or exo-Klenow fragment. After gel purification, the radiolabelled DNA was dissolved in 10 mM Tris-HCl pH 7.5 containing 0.1 mM EDTA, at a concentration of about 10 c.p.s per μL as determined on a hand held Geiger counter. 1.5 μL of radiolabelled DNA was mixed with 1.5 μL ligand that had been freshly diluted in 10 mM Tris-HCl pH 7.5, containing 10 mM NaCl. […]

[8] = tested on: linear 32P-end-labelled TyrT DNA; assay: DNA interstrand cross-linking assay (denaturing polyacrylamide gel); assay type: biochemical; conditions: overnight incubation at 37° C.
Description: The ability of 26 and 34 to cross-link DNA was determined using an assay involving linear double-stranded HexA. TyrT and MS1 DNA fragments (FIG. 5).
Following denaturation conditions (treatment with formamide and heating at 65° C. for 5 min) the DNA strands were completely separated (see control C2, FIG. 6). The presence of an interstrand cross-link holds the denatured strands in close proximity, and cross-linked adducts therefore run as double-stranded DNA on polyacrylamide gel. Talirine and 34 were tested at >10 different concentrations, and the assay was repeated twice. […] C1 and C2 represent controls where C1 is DNA without formic acid, and C2 is DNA without formic acid, but heated thereby forming single strands. Cross-links are clearly detectable at concentrations as low as 10 nM. Using the same assay, the PBD dimer Talirine was also shown to cross-link DNA down to a concentration of 10 nM (FIG. 7).
The preparation of the DNA fragments (FIG. 5) has been previously described^[4]. Briefly, the sequence which had been cloned into the BamHI site of pUC18 was obtained by cutting with HindIII and EcoRI. Radiolabelled DNA fragments were prepared by filling in the 3′-end of the HindIII site with [α-^32P]dATP using Klenow DNA polymerase (exo-).
The radiolabelled DNA fragment was separated from the remainder of the plasmid DNA on a 6% non-denaturing polyacrylamide gel. […]

Molecule | pIC50 ([1]; LIM1215, 3 runs) | pIC50 [2] | pIC50 [3] | pIC50 ([4]; Homo sapiens, SW-620, 3 runs) | pIC50 ([5]; Homo sapiens, SW48, 3 runs) | pIC50 [6] | general code of the footprints (preferred binding sites) [7] | pIC50 ([1]; 3 runs) | pIC50 ([4]; 3 runs) | pIC50 ([5]; 3 runs) | lowest concentration at which DNA is cross-linked [8]
COc1ccc(C2=CCN3C(=O)c4cc(OC)c(OCc5cccc(COc6cc7c(cc6OC)C(=O)N6CC=C(c8ccc(OC)cc8)C[C@H]6C=N7)n5)cc4N=C[C@@H]3C2)cc1 [Compound 26, (6aS,6a′S)-3,3′-((Pyridine-2,6-diylbis(methylene))bis(oxy))bis(2-methoxy-8-(4-methoxyphenyl)-7,10-dihydrobenzo[e]pyrido[1,2-α][1,4]diazepin-12(6aH)-one)] | 11.22 | 11.22 | 11.22 | 11.30 | 11.22 | 11.30 | XYWWYWYX | – | – | – | –
COc1cc2c(cc1OCc1cccc(COc3cc4c(cc3OC)C(=O)N3CC=C(c5cncnc5)C[C@H]3C=N4)n1)N=C[C@@H]1CC(c3cncnc3)=CCN1C2=O [Compound 50, (6aS,6a′S)-3,3′-((Pyridine-2,6-diylbis(methylene))bis(oxy))bis(2-methoxy-8-(pyrimidin-5-yl)-7,10-dihydrobenzo[e]pyrido[1,2-α][1,4]diazepin-12(6aH)-one)] | 11.43 | – | – | 8.87 | 11.51 | – | – | – | – | – | –
COc1cc2c(cc1OCc1cccc(COc3cc4c(cc3OC)C(=O)N3CC=C(c5ccsc5)C[C@H]3C=N4)n1)N=C[C@@H]1CC(c3ccsc3)=CCN1C2=O [Compound 58, (6aS,6a′S)-3,3′-((Pyridine-2,6-diylbis(methylene))bis(oxy))bis(2-methoxy-8-(thiophen-3-yl)-7,10-dihydrobenzo[e]pyrido[1,2-α][1,4]diazepin-12(6aH)-one)] | 10.64 | – | – | 10.04 | 11.07 | – | – | – | – | – | –
COc1cc2c(cc1OCc1cccc(COc3cc4c(cc3OC)C(=O)N3CC=C(c5cccs5)C[C@H]3C=N4)n1)N=C[C@@H]1CC(c3cccs3)=CCN1C2=O [Compound 68, (6aS,6a′S)-3,3′-((Pyridine-2,6-diylbis(methylene))bis(oxy))bis(2-methoxy-8-(thiophen-2-yl)-7,10-dihydrobenzo[e]pyrido[1,2-α][1,4]diazepin-12(6aH)-one)] | 10.89 | – | – | 10.52 | 10.92 | – | – | – | – | – | –
Talirine [reference compound] | – | – | – | – | – | – | – | 9.36 | 10.77 | 11.52 | 10 nM
